The record followed here is patent US20220000841A1, “INHIBITORS OF METALLO-BETA-LACTAMASES” (CENTRE NATIONAL DE LA RECHERCHE SCIENTIFIQUE, priority 2018, published 2022).

Format in all cases: biochemical
The target of one test is VIM-1 (Pseudomonas aeruginosa, UniProt A0A0F7KYQ8). Put plainly: Enzymatic assay for determination of inhibition constants, reporter substrate method, purified VIM-1.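 Also: initial hydrolysis rates of a reporter β-lactam (imipenem, meropenem, cefotaxime or nitrocefin) followed by absorbance change, purified enzyme at 1–70 nM in 50 mM HEPES pH 7.5.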 The conditions noted are these: isolated MBL, competitive inhibition model.
The target in another test is VIM-2 (Escherichia coli, UniProt Q5U7L7). Description: Enzymatic assay for determination of inhibition constants, reporter substrate method, purified VIM-2.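 Also: purified VIM-2 hydrolysing a reporter substrate (imipenem, meropenem, cefotaxime or nitrocefin), reaction rate read as absorbance change, HEPES 50 mM at pH 7.5.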
The target in another test is NDM-1 (Klebsiella pneumoniae, UniProt C7C422). Description: Enzymatic assay for determination of inhibition constants, reporter substrate method, purified NDM-1.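 As to all read-outs here: purified enzyme activity followed as absorbance change from reporter substrate hydrolysis on a UV-Vis spectrophotometer or plate reader, 50 mM HEPES pH 7.5.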 The conditions noted are these: for Ki: isolated MBL, competitive inhibition model.
NDM-1, sequence (C7C422 29-270, looked up, species assumed): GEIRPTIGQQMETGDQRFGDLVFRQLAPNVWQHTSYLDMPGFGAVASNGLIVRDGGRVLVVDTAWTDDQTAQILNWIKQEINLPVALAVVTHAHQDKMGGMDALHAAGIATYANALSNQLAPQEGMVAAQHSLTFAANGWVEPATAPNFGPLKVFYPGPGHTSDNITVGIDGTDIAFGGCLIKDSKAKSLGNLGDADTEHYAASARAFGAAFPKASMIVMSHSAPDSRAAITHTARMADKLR
For a further test, the target named is IMP-1 (Serratia marcescens, UniProt P52699). Description: Enzymatic assay for determination of inhibition constants, reporter substrate method, purified IMP-1.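 As to all read-outs here: purified IMP-1 (1-70 nM) hydrolysing a reporter substrate, initial rates followed as absorbance change at 260, 300 or 482 nm in 50 mM HEPES pH 7.5.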 The conditions noted are these: for Ki: isolated MBL, competitive inhibition model; for % inhibition IMP-1: at 200 μM (maximal tested concentration).
IMP-1, sequence (P52699 19-246, looked up, species assumed): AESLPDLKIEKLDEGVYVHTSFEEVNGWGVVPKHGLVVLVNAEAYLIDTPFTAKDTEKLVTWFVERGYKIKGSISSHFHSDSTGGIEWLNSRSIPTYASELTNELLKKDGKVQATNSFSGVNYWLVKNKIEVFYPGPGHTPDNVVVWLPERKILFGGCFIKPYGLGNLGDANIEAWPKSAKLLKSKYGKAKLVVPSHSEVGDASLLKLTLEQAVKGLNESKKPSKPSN
Another test addresses VIM-4 (Pseudomonas aeruginosa, UniProt Q8KRJ3). Put plainly: Enzymatic assay for determination of inhibition constants, reporter substrate method, purified VIM-4.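 Also: purified VIM-4 (1-70 nM) in 50 mM HEPES pH 7.5, reporter substrate hydrolysis rate tracked by absorbance change (nitrocefin 482 nm, imipenem or meropenem 300 nm, cefotaxime 260 nm).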 The conditions noted are these: at 100 μM (maximal tested concentration).
[1] abbreviates: isolated MBL, competitive inhibition model, read-out: Ki VIM-2.
Where [2] appears, read: at 100 μM (maximal tested concentration).
Setting [3] is: at 200 μM (maximal tested concentration).
[4] abbreviates: as listed in Table 2, read-out: Ki on VIM-2.

The structures appear in SMILES notation. Where two headings read alike, the source gives them in different places.

Procedure for VIM-1: (§1) The reaction rate was measured as the variation of absorbance observed upon substrate hydrolysis in a UV-Vis spectrophotometer or microplate reader at a wavelength of 300 nm (imipenem, meropenem), 260 nm (cefotaxime) or 482 nm (nitrocefin) in 50 mM HEPES buffer (pH 7.5) and in the presence of a purified MBL enzyme (such as VIM-1, VIM-2, VIM-4, NDM-1 and IMP-1, at a final concentration ranging 1-70 nM).
(§2) The inhibition constants (Ki) were determined on the basis of a model of competitive inhibition by analyzing the dependence of the ratio v0/vi (v0, hydrolysis velocity in the absence of inhibitor; vi, hydrolysis velocity in the presence of inhibitor) as a function of [I] as already described [Docquier J. D., Lamotte-Brasseur J., Galleni M., Amicosante G., Frère J. M., Rossolini G. M. (2003) J. Antimicrob. […] The slope of the plot of v0/vi vs [I], which corresponds to Km^S/(Km^S+[S])Ki (where Km^S is the Km value of the reporter substrate and [S] its concentration in the reaction mixture) and allowed the calculation of the Ki value. Alternatively, a Dixon plot analysis was carried out, by measuring the initial hydrolysis rates in the presence of variable concentrations of inhibitor and substrate.
Procedure for VIM-2: as §1, §2
Procedure for VIM-4: as §1, §2

As to `O=C(O)c1ccccc1CCn1c(-c2ccc(OCc3ccccc3)cc2)n[nH]c1=S` [Compound 40, 5-(4-Benzyloxyphenyl)-4-[2-(2-carboxyphenyl)ethyl]-1,2,4-triazole-3-thione], the Ki (in general, the equilibrium dissociation constant of an inhibitor or competing ligand from its target) at VIM-1 is over 100 µM; on VIM-2 (setting [1]), under 1 µM; on NDM-1 it was over 100 µM; on IMP-1, over 100 µM.
As for `O=C(O)c1ccccc1CCn1c(-c2ccsc2)n[nH]c1=S` [Compound 58, o-{2-[3-(3-Thienyl)-5-thioxo-1,4-dihydro-1,2,4-triazol-4-yl]ethyl}benzoic acid], the “% inhibition VIM-2” value at VIM-2 (setting [2]) is on record as 85% at 100 μM. In addition, the Ki on NDM-1 and at IMP-1 was over 100 µM in each case.
With `O=C(O)CSCCn1c(-c2ccccc2)n[nH]c1=S` [Compound 65, [2-(3-Phenyl-5-thioxo-1,4-dihydro-1,2,4-triazol-4-yl)ethylthio]acetic acid], at VIM-2 (setting [2]), the “% inhibition VIM-2” value is on record as 90% at 100 μM. Further, the Ki at NDM-1 and on IMP-1 was over 100 µM throughout.
As to `O=C(O)c1ccc(Cn2c(-c3ccccc3)n[nH]c2=S)cc1` [Compound 55, p-[(3-Phenyl-5-thioxo-1,4-dihydro-1,2,4-triazol-4-yl)methyl]benzoic acid], the “% inhibition VIM-2” value at VIM-2 (setting [3]) was 80% at 200 μM. Also, the “% inhibition VIM-4” value on VIM-4 came to 80% at 100 μM. In addition, the Ki at NDM-1 and on IMP-1 was over 100 µM throughout.
Regarding `S=c1[nH]nc(-c2ccccc2)n1[C@@H]1C[C@H]1c1ccccc1` [Compound 20, 3-phenyl-4-[(1R,2S)-2-phenylcyclopropyl]-4,5-dihydro-1H-1,2,4-triazole-5-thione], on VIM-2 (setting [3]), the “% inhibition VIM-2” value worked out at 70% at 200 μM. Further, the inhibition constant (Ki) was 10 to 100 µM on NDM-1 and over 100 µM at IMP-1.
For `O=C(O)c1ccccc1CNn1c(-c2ccccc2)n[nH]c1=S` [Compound 5, 2-{[(3-phenyl-5-sulfanylidene-4,5-dihydro-1H-1,2,4-triazol-4-yl)amino]methyl}benzoic acid], the Ki on VIM-1 is over 100 µM; at VIM-2 (setting [4]), 1 to 10 µM; at VIM-2 (setting [1]), 1 to 10 µM; on NDM-1, over 100 µM; on IMP-1, over 100 µM.
With `Oc1ccc(CCn2c(-c3ccccc3-c3ccccc3)n[nH]c2=S)c(O)c1` [Compound 43, 5-(2-Biphenyl)-4-[2-(2,4-dihydroxyphenyl)ethyl]-1,2,4-triazole-3-thione], the Ki is over 100 µM on VIM-1, over 100 µM at VIM-2 (setting [1]), 10 to 100 µM on NDM-1 and over 100 µM on IMP-1.
Turning to `O=C(O)c1cccc(Cn2c(-c3ccccc3)n[nH]c2=S)c1` [Compound 52, m-[(3-Phenyl-5-thioxo-1,4-dihydro-1,2,4-triazol-4-yl)methyl]benzoic acid], on VIM-2 (setting [2]), the “% inhibition VIM-2” value is given as 84% at 100 μM. Besides, the inhibition constant Ki at NDM-1 and on IMP-1 was over 100 µM each time.
In the case of `Oc1ccc(CCn2c(-c3ccccc3)n[nH]c2=S)cc1` [Compound 31, 4-[2-(4-hydroxyphenyl)ethyl]-3-phenyl-4,5-dihydro-1H-1,2,4-triazole-5-thione], the inhibition constant Ki at VIM-1 lay within 1 to 10 µM; on VIM-2 (setting [1]), 1 to 10 µM; at NDM-1 it was 10 to 100 µM; on IMP-1, 10 to 100 µM. The “% inhibition VIM-4” value on VIM-4 was 70% at 100 μM.
Turning to `S=c1[nH]nc(-c2ccccc2)n1CCc1ccc(OCc2ccccc2)cc1` [Compound 54, 4-[4-(Benzyloxy)phenylethyl]-5-phenyl-1,2,4-triazole-3-thione], the inhibition constant Ki at VIM-2 (setting [1]) was 10 to 100 µM; at NDM-1, over 100 µM. In addition, the “% inhibition IMP-1” value at IMP-1 is 60% at 200 μM.
Take `Cc1ccccc1-c1n[nH]c(=S)n1/N=C/c1ccccc1C(=O)O` [II, reference compound]: the inhibition constant (Ki) at VIM-2 (setting [4]) was 1 to 10 µM.
Turning to `O=C(O)c1ccccc1CCn1c(-c2ccc[nH]2)n[nH]c1=S` [Compound 57, o-{2-[3-(1H-Pyrrol-2-yl)-5-thioxo-1,4-dihydro-1,2,4-triazol-4-yl]ethyl}benzoic acid], the “% inhibition VIM-2” value at VIM-2 (setting [3]) turned out to be 80% at 200 μM. Further, the “% inhibition VIM-4” value at VIM-4 worked out at 65% at 100 μM. Moreover, at NDM-1 (setting [3]), the “% inhibition NDM-1” value amounted to 60% at 200 μM. The compound also yielded a Ki at IMP-1 of over 100 µM.
With `O=C(O)c1ccccc1CNn1c(-c2cccc(-c3ccccc3)c2)n[nH]c1=S` [Compound 51, o-{[3-(3-Biphenylyl)-5-thioxo-1,4-dihydro-1,2,4-triazol-4-ylamino]methyl}benzoic acid], the “% inhibition VIM-2” value on VIM-2 (setting [2]) was 75% at 100 μM. Also, the Ki at NDM-1 and at IMP-1 was over 100 µM in each case.
Turning to `Cn1cccc1-c1n[nH]c(=S)n1CCc1ccccc1C(=O)O` [Compound 44], the inhibitory constant (Ki) on VIM-2 (setting [1]) is under 1 µM; on NDM-1 it was over 100 µM; on IMP-1 it was over 100 µM. Moreover, the “% inhibition VIM-4” value at VIM-4 was found to be 80% at 100 μM.
Take `Nc1ccc(CCn2c(-c3ccccc3)n[nH]c2=S)c(C(=O)O)c1` [Compound 61, 5-Amino-2-[2-(3-phenyl-5-thioxo-1,4-dihydro-1,2,4-triazol-4-yl)ethyl]benzoic acid]: at VIM-2 (setting [2]), the “% inhibition VIM-2” value stood at 75% at 100 μM. In addition, the Ki on NDM-1 and on IMP-1 was over 100 µM throughout.
Turning to `O=C(O)CC(Cn1c(-c2ccccc2)n[nH]c1=S)c1ccccc1` (stereo not shown) [Compound 46, 3-Phenyl-4-(3-phenyl-5-thioxo-1,4-dihydro-1,2,4-triazol-4-yl)butyric acid], the Ki at VIM-1, at VIM-2 (setting [1]), on NDM-1 and on IMP-1 was over 100 µM each time.
Consider `O=C(O)c1ccccc1CCn1c(-c2ccc3ncccc3c2)n[nH]c1=S` [Compound 56, 2-{2-[3-(Quinolin-6-yl)-5-sulfanylidene-4,5-dihydro-1H-1,2,4-triazol-4-yl]ethyl}benzoic acid], for which the “% inhibition VIM-2” value on VIM-2 (setting [2]) is on record as 85% at 100 μM. Moreover, the Ki at NDM-1 and on IMP-1 was over 100 µM throughout.
Turning to `Sc1nnc(-c2ccccc2)n1Cc1ccccc1` [Compound 9, 4-benzyl-3-phenyl-4,5-dihydro-1H-1,2,4-triazole-5-thione], the Ki is over 100 µM at VIM-2 (setting [1]), over 100 µM at NDM-1 and 1 to 10 µM on IMP-1.
`O=C(O)c1cc(O)ccc1CCn1c(-c2ccccc2)n[nH]c1=S` [Compound 53, 5-Hydroxy-2-[2-(3-phenyl-5-thioxo-1,4-dihydro-1,2,4-triazol-4-yl)ethyl]benzoic acid]: the “% inhibition VIM-2” value at VIM-2 (setting [2]) worked out at 90% at 100 μM. The Ki on NDM-1 and at IMP-1 was over 100 µM in each case.
As for `O=C(O)CCCn1c(-c2ccccc2)n[nH]c1=S` [Compound 2, 4-(3-phenyl-5-sulfanylidene-4,5-dihydro-1H-1,2,4-triazol-4-yl)butanoic acid], the Ki was over 100 µM on VIM-1; 1 to 10 µM on VIM-2 (setting [4]); 1 to 10 µM at VIM-2 (setting [1]); over 100 µM on NDM-1; over 100 µM at IMP-1.
Consider `COc1ccc(O)c(-c2n[nH]c(=S)n2Cc2ccccc2)c1` [Compound 7, 4-benzyl-3-(2-hydroxy-5-methoxyphenyl)-4,5-dihydro-1H-1,2,4-triazole-5-thione], for which the inhibition constant (Ki) at VIM-1 is under 1 µM; at VIM-2 (setting [1]) it was 1 to 10 µM; at NDM-1, over 100 µM; on IMP-1, over 100 µM.
On to `Oc1ccc(CCn2c(-c3ccccc3)n[nH]c2=S)c(O)c1` [Compound 41, 4-[2-(2,4-Dihydroxyphenyl)ethyl]-5-phenyl-1,2,4-triazole-3-thione], for which the Ki at VIM-1 is over 100 µM; at VIM-2 (setting [1]) it was over 100 µM; at NDM-1, 10 to 100 µM; at IMP-1 it was 10 to 100 µM.
Regarding `O=C(O)c1ccccc1CCn1c(-c2ccc3ccccc3n2)n[nH]c1=S` [Compound 36, 2-{2-[3-(Quinolin-2-yl)-5-sulfanylidene-4,5-dihydro-1H-1,2,4-triazol-4-yl]ethyl}benzoic acid], the inhibition constant (Ki) on VIM-2 (setting [1]), at NDM-1 and at IMP-1 was over 100 µM each time. Further, the “% inhibition VIM-4” value on VIM-4 was 85% at 100 μM.
`O=C(O)CCCn1c(-c2cccc(-c3ccccc3)c2)n[nH]c1=S` [Compound 38, 5-(3-Biphenyl)-4-[3-carboxypropanyl]-1,2,4-triazole-3-thione]: the Ki at VIM-1 is over 100 µM; on VIM-2 (setting [1]), under 1 µM; on NDM-1, over 100 µM; on IMP-1, over 100 µM.
For `O=C(O)CCCCCCCn1c(-c2ccccc2)n[nH]c1=S` [Compound 59, 8-(3-Phenyl-5-thioxo-1,4-dihydro-1,2,4-triazol-4-yl)octanoic acid], the “% inhibition VIM-2” value on VIM-2 (setting [2]) worked out at 90% at 100 μM. In addition, the inhibition constant Ki on NDM-1 and at IMP-1 was over 100 µM each time.
For the compound `Cn1cccc1-c1n[nH]c(=S)n1CCCC(=O)O` [Compound 48, 4-[3-(1-Methyl-1H-pyrrol-2-yl)-5-thioxo-1,4-dihydro-1,2,4-triazol-4-yl]butyric acid], the Ki on VIM-2 (setting [1]), on NDM-1 and on IMP-1 was over 100 µM throughout. The “% inhibition VIM-4” value at VIM-4 was found to be 75% at 100 μM.
In the case of `S=c1[nH]nc(-c2ccccc2)n1CCCc1ccccc1` [Compound 8, 3-phenyl-4-(3-phenylpropyl)-4,5-dihydro-1H-1,2,4-triazole-5-thione], the Ki at VIM-2 (setting [1]) and on NDM-1 was over 100 µM each time. Moreover, at IMP-1, the “% inhibition IMP-1” value worked out at 70% at 200 μM.
For `COc1ccc(O)c(-c2n[nH]c(=S)n2CCc2ccccc2)c1` [Compound 10, 3-(2-hydroxy-5-methoxyphenyl)-4-(2-phenylethyl)-4,5-dihydro-1H-1,2,4-triazole-5-thione], the inhibition constant (Ki) on VIM-1 fell in the range of 1 to 10 µM; on VIM-2 (setting [1]), 1 to 10 µM; at NDM-1 it was 1 to 10 µM; at IMP-1, 10 to 100 µM.
For `O=C(O)C(SCCn1c(-c2ccccc2)n[nH]c1=S)c1ccccc1` (stereo not shown) [Compound 60, Phenyl[2-(3-phenyl-5-thioxo-1,4-dihydro-1,2,4-triazol-4-yl)ethylthio]acetic acid], the “% inhibition VIM-2” value on VIM-2 (setting [2]) was 96% at 100 μM. The inhibition constant (Ki) at NDM-1 and on IMP-1 was over 100 µM each time.
